For this assay, the target named is T1, BbChp.
T1 construct: CARF domain (307–528), N-terminal 6xHis
Put plainly: thermal shift assay (DSF) titration, Tm […] to […] °C. The assay is classed as binding, Bacteroidales bacterium.

Consider one compound from paper PMC12715507, “CARF-HAD phosphatase effectors provide immunity during the type III-A CRISPR–Cas response” (Nucleic Acids Research, 2025).

The Kd is a measure of binding affinity in units of concentration.

For `Nc1ncnc2c1ncn2[C@@H]1O[C@@H]2COP(=O)(O)O[C@H]3[C@@H](O)[C@H](n4cnc5c(N)ncnc54)O[C@@H]3COP(=O)(O)O[C@H]3[C@@H](O)[C@H](n4cnc5c(N)ncnc54)O[C@@H]3COP(=O)(O)O[C@H]3[C@@H](O)[C@H](n4cnc5c(N)ncnc54)O[C@@H]3COP(=O)(O)O[C@H]2[C@H]1O` [cA4], the Kd was found to be 273 nM.
